Test results reported in paper PMC12451337 (ESMO Open, 2025).
“And” between values parts separate entries of the source, which are not always exact repeats. Equal entries are not always repeated.

Tests used:
[1] = system: patients with advanced solid tumors; assay: Phase I dose-escalation trial: safety and tolerability (TEAEs, DLTs, MTD, RP2D)
Experimental: The study was carried out in compliance with the International Council for Harmonisation Good Clinical Practices, including the ethical principles of the Declaration of Helsinki. All patients provided signed informed consent before any study-specific procedures were carried out.
For determination of dose escalation, all toxicities, all available PK, and other relevant patient data occurring during the first cycle were considered. In addition, safety in patients ongoing in repeat cycles at lower doses was also taken into consideration by the Cohort Review Committee (CRC; consisting of investigators and the medical monitor), when making dose-escalation decisions. The determination of RP2D included the assessment of acute and chronic toxicities and tolerability (missing doses, dose reductions, etc.) and was informed by the experience of the totality of data. The maximum tolerated dose (MTD) was defined as the highest dose level at which one or fewer of six patients experienced dose-limiting toxicities (DLTs). […] A dose reduction at or after cycle 2 was granted in accordance with dose modification guidelines if, in the opinion of the investigator, a dose reduction was in the best interest of the patient.
Safety was monitored throughout the study.

[2] = system: polyamine transport in T cells; assay: Whole blood assay: uptake of fluorescently labeled spermine analog by activated T cells (flow cytometry); assay type: cell-based, human
Experimental: To evaluate the target engagement activity of AMXT 1501 after administration, an ex vivo pharmacodynamic assay assessing lymphocyte spermine uptake and inhibition of uptake by AMXT 1501 was developed.
The purpose of the whole blood assay is to quantify the inhibition of polyamine transport in T cells in human subjects receiving AMXT 1501. Whole blood collected from subjects receiving AMXT 1501 was diluted with serum-free media and stimulated with anti-CD3 and anti-CD28 to drive T-cell activation and proliferation for a total of 3 days. During the last 12-18 h of culture, a fluorescently labeled spermine analog (compound 5)[38] was added to the in vitro culture to monitor polyamine uptake into cells. The functional activity (inhibitory effect) of AMXT 1501 on compound 5 uptake by T cells is then determined using flow cytometry by measuring the frequency and mean fluorescence intensity of compound 5+ T cells. Comparisons were made between the uptake in the pretreatment sample and samples taken over time postdose.
An ex vivo blood-based pharmacodynamic assay was developed to measure the inhibition of uptake of a fluorescently labeled polyamine analog by AMXT 1501 into activated CD4+ lymphocytes in culture. Using a fluorescence-activating cell sorting system, tracking of the cellular uptake of the fluorescence of this labeled polyamine was followed after CD3/CD28 activation.

tumor cells in culture = assay: Predicted ED95 against tumor cells in culture (nonclinical data); assay type: cell-based
polyamine transport = system: polyamine transport; set-up: method as in PMID 19281226; details: without crossing the cell membrane; cited from earlier work
clinical = details: human, oral
Experimental: (§1) Blood was obtained from all patients and collected in anticoagulant tubes (K2-EDTA). Plasma samples were stored at −80°C until analysis (both drugs were validated as stable under these storage conditions). The PK analysis population included all patients who received at least one dose of AMXT 1501 and had at least one quantifiable AMXT 1501 plasma concentration postdose.

[3] = Pharmacokinetics in patients (plasma and tumor biopsy, LC-MS/MS)
Experimental: as §1

[4] = whole human blood samples treated with 0-2000 nM AMXT 1501, absence of DFMO

With `CCCCCCCCCCCCCCCC(=O)NCCCC[C@@H](N)C(=O)NCCCNCCCCNCCCN` [AMXT 1501, AMXT 1501 dicaprate] the “AMXT 1501 dose relationship with proportions of patients with TEAEs, treatment-related TEAEs or SAEs, discontinuation, dose interruption” value ([1]; human, in vivo) was “no strong evidence for any AMXT 1501 dose relationship”, the “RP2D of AMXT 1501 in the combination” value ([1]; in combination with DFMO 500 mg b.i.d.) was 600 mg b.i.d and the MTD ([1]; part 1, when given with DFMO 250 mg b.i.d.) was 1800 mg o.d. The “Part 1 AMXT 1501 recommended phase II dose (RP2D)” value ([1]; part 1, with DFMO 250 mg b.i.d.) was 1800 mg o.d, the “Inhibition of fluorescent marker transport with DFMO added to the culture” value ([2]; DFMO added to the culture) was “still able to potently inhibit this transport” and the “Target engagement in samples taken over time following dosing versus pretreatment” value ([2]; ex vivo, patients' blood after oral dosing) was “sustained AMXT 1501 target engagement activity”. The “Concentration of maximal fluorescent-labeled spermine uptake inhibition” value [2, 4] was 250 nM, the “half maximum inhibitory concentration (ED50)” value [2, 4] was roughly 75 nM and the “predicted effective dose 95% (ED95)” value (tumor cells in culture; in combination with DFMO, nonclinical data) was 100 nM. The “Blocks cellular uptake of spermidine” value (polyamine transport) was “nanomolar range”, the Kp (clinical; tumor biopsy / plasma) was 12 and the concentration at 30 days of treatment (clinical; tumor biopsy) was 3480 ng/mL and 6.12 µM. The “AMXT 1501 exposure based on mean Cmax versus dose” value ([3]; human, in vivo) was “near dose-proportional”, the “Accumulation of AMXT 1501 after repeat dosing” value ([3]; human, in vivo) was “up to 10 fold” and the “Effect of DFMO administration on AMXT 1501 exposure” value ([3]; human, in vivo) was “no consistent effect”. For the same compound, the “Predose AMXT 1501 plasma concentration” value ([3]; human, in vivo) was 296 ng/mL and the “AMXT 1501 steady state obtained by” value ([3]; human, in vivo, po) was “cycle 1 day 14”.

For `NCCCC(N)(C(=O)O)C(F)F` (centres unmarked) [DFMO, difluoromethylornithine, reference compound], the “Effect of DFMO addition on uptake of the fluorescent marker” value ([2]; addition to the culture) was “increased the uptake of the fluorescent marker”, the “predicted ED95 concentration” value (tumor cells in culture) was 100 μM and 18 200 ng/ml and the “DFMO exposure versus dose” value ([3]; between the 500 and 1000 mg/day dose levels) was “approximately dose-proportional”. The “Change in DFMO exposure with repeat dosing” value ([3]; human, in vivo) was “no substantial change”, the “Effect of AMXT 1501 dose level on DFMO exposure” value ([3]; human, in vivo) was “no apparent effect” and the “Achievement of predicted DFMO ED95 concentration (100 μM) by oral delivery” value ([3]; in combination with AMXT 1501) was “unable to achieve this level”.
